Tests used:
BAX = BAX (Homo sapiens, UniProt Q07812); assay: 1H-15N HSQC NMR chemical shift perturbations with 15N-labelled BAX; format: binding; design: NMR experiments used full-length WT BAX at a concentration of 200 μM; made in house; host or cells: Escherichia coli BL21-AI (minimal media, 15N); settings: 200 uM BAX
Procedure: All experiments were performed using an independent sample for each measurement and were DMSO matched to account for environment changes due to the solvent. ^15N-labeled BAX was prepared as described above in 50 mM potassium phosphate pH 6, 50 mM NaCl, and 10% D2O. Samples were mixed before loading 40 μL in a 1.7 mm sample tube. […] NMR experiments used full-length WT BAX at a concentration of 200 μM. Experiments were conducted on a 600 MHz Bruker Avance magnet at 25° C. Chemical shift perturbations (CSP) were calculated in CCPNMRv3 using an automated analysis, where all peaks were matched to their extrema and calculated using the equation: […]
In the CSP equation above, α denotes the relative weighting of chemical shift changes of the ^15N relative to ^1H nuclei. ΔδHX and ΔδNx are the observed changes of the proton and nitrogen chemical shifts for residue x, respectively. As a note, all amino acid positions on the HSQC were manually inspected to use the extrema of the nearest identified peak. The absence of a bar in the CSP graph indicates no chemical shift, the presence of a proline, or a missing residue peak not used for analysis. Significance threshold was calculated as the average of chemical shifts across all residues plus the standard deviation. […]

V83W L120W BAX = target: T1, V83W L120W BAX (Homo sapiens, UniProt Q07812, L120W/V83W); assay: ANTS/DPX liposome permeabilization with BAX mutant; format: biochemical; settings: 100 nM V83W L120W BAX, 20 nM cBID, 20 uM compound
T1 construct: made in house
Procedure: For ANTS/DPX dye release assays: ANTS (fluorophore; excitation 355 nm, emission 520 nm) and DPX (collisional quencher) are encapsulated in reconstituted liposomes. When the membrane is permeabilized, ANTS and DPX diffuse to the outside of the liposomes, decreasing the effective concentration DPX and therefore quenching by […] is decreased and ANTS fluorescence increases. ANTS/DPX liposomes (8 uL of mg/mL liposome preparation per 100 μL of reaction) were added to individual wells of multi-well plates (100 μL final volume for 96 well plates or (30 μL total volume for 384 well plates) in assay buffer (10 mM HEPES pH 7.2, 200 mM KCl, and 5 mM MgCl2). The background fluorescence of the liposomes and the compound dissolved in DMSO was measured for 10 minutes to ensure fluorescent signal stabilized (F0). Unless explicitly stated, 20 nM cBID and 100 nM BAX were added sequentially to each well and mixed thoroughly. The fluorescence intensity of ANTS was measured every minute for 2-3 hours until the signal stabilizes at a plateau (F). […] The plate was then read a third time to assess the fluorescence of ANTS upon full dissociation of liposomes in each well (F100). The percentage of dye release from the liposomes due to the action of cBID and BAX is calculated as: […]

T1 sequence (Q07812 whole entry V83W/L120W): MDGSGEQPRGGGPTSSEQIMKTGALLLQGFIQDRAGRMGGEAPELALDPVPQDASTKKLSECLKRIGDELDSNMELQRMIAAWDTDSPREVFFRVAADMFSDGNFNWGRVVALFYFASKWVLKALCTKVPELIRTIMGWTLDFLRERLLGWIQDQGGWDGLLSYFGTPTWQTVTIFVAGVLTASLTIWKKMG
Sequence of BAX (Q07812 whole entry): as the sequence (Q07812 whole entry V83W/L120W) above, with W83V, W120L counted along it

Row | SMILES | binding to BAX (chemical shift perturbations) (BAX) | inhibition of mutant BAX (V83W L120W BAX)
1 | COc1cc2ccnc(Nc3ccc(F)c(Cl)c3)c2cc1NC(=O)CCCN1CCCCC1 [Compound I-1, N-(1-((3-chloro-4-fluorophenyl)amino)-6-methoxyisoquinolin-7-yl)-4-(piperidin-1-yl)butanamide] | bind the cytosolic conformation of BAX | –
2 | COc1cc2ncnc(Nc3ccc(F)c(Cl)c3)c2cc1NC(=O)/C=C/CN1CCCCC1 [Dacomitinib, reference compound] | – | reduced inhibition

Reference: US20250154140A1 (Sunnybrook Research Institute, priority 2022, published 2025)
